How the values were obtained:
Format in all cases: in vivo
[1] = tested on: barnyardgrass (Echinochloa crus-galli); assay: Test A preemergence soil spray, visual injury rating 0-100; conditions: 10 days, 0 = no effect, 100 = complete control
Method in brief: (§1)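 Seeds sown in loam-sand blend got a preemergence directed soil spray, or emerged plants (2-10 cm, one- to two-leaf) got a postemergence spray, of compound in non-phytotoxic solvent with surfactant. After 10 days in greenhouse, injury rated visually versus untreated controls on a 0 (no effect) to 100 (complete control) scale.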

[2] = tested on: palmer (palmer amaranth, palmer pigweed, Amaranthus palmeri); assay: as above; conditions: 10 days, 0 = no effect, 100 = complete control
Method in brief: as §1

[3] = tested on: soybean (Glycine max); assay: as above; conditions: 10 days, 0 = no effect, 100 = complete control
Method in brief: as §1

[4] = tested on: blackgrass (Alopecurus myosuroides); assay: as above; conditions: 10 days, 0 = no effect, 100 = complete control
Method in brief: as §1

[5] = tested on: corn (Zea mays); assay: as above; conditions: 10 days, 0 = no effect, 100 = complete control
Method in brief: as §1

[6] = tested on: ryegrass, Italian (italian ryegrass, Lolium multiflorum); assay: as above; conditions: 10 days, 0 = no effect, 100 = complete control
Method in brief: as §1

[7] = tested on: kochia (Bassia scoparia); assay: as above; conditions: 10 days, 0 = no effect, 100 = complete control
Method in brief: as §1

[8] = tested on: oat, wild (wild oat, Avena fatua); assay: as above; conditions: 10 days, 0 = no effect, 100 = complete control
Method in brief: as §1

[9] = tested on: wheat (Triticum aestivum); assay: as above; conditions: 10 days, 0 = no effect, 100 = complete control
Method in brief: as §1

[10] = tested on: ragweed (common ragweed, Ambrosia artemisiifolia); assay: as above; conditions: 10 days, 0 = no effect, 100 = complete control
Method in brief: as §1

[11] = tested on: barnyardgrass (Echinochloa crusgalli); assay: Test B flooded paddy test, visual plant response rating 0-100; conditions: 250 g ai/ha, Flood, applied to paddy water, evaluated after 13 days
Method in brief: (§2)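 Each species was raised to two leaves before flooding to a 3 cm depth and dosing the water with compound. Injury was assessed by eye after 13 days under greenhouse conditions.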

[12] = tested on: rice (Oryza sativa); assay: as above; conditions: 250 g ai/ha, Flood, applied to paddy water, evaluated after 13 days
Method in brief: as §2

[13] = tested on: sedge, umbrella (small-flower umbrella sedge, Cyperus difformis); assay: as above; conditions: 250 g ai/ha, Flood, applied to paddy water, evaluated after 13 days
Method in brief: as §2

[14] = tested on: ducksalad (Heteranthera limosa); assay: as above; conditions: 250 g ai/ha, Flood, applied to paddy water, evaluated after 13 days
Method in brief: as §2

[15] = tested on: barnyardgrass (Echinochloa crus-galli); assay: Test A postemergence application, visual injury rating 0-100; conditions: Postemergence
Method in brief: as §1

[16] = tested on: galium (catchweed bedstraw, Galium aparine); assay: as above; conditions: Postemergence
Method in brief: as §1

[17] = tested on: palmer (palmer amaranth, palmer pigweed, Amaranthus palmeri); assay: as above; conditions: Postemergence
Method in brief: as §1

[18] = tested on: soybean (Glycine max); assay: as above; conditions: Postemergence
Method in brief: as §1

[19] = tested on: blackgrass (Alopecurus myosuroides); assay: as above; conditions: Postemergence
Method in brief: as §1

[20] = tested on: corn (Zea mays); assay: as above; conditions: Postemergence
Method in brief: as §1

[21] = tested on: ryegrass, Italian (italian ryegrass, Lolium multiflorum); assay: as above; conditions: Postemergence
Method in brief: as §1

[22] = tested on: horseweed (Erigeron canadensis); assay: as above; conditions: Postemergence
Method in brief: as §1

[23] = tested on: kochia (Bassia scoparia); assay: as above; conditions: Postemergence
Method in brief: as §1

[24] = tested on: oat, wild (wild oat, Avena fatua); assay: as above; conditions: Postemergence
Method in brief: as §1

[25] = tested on: wheat (Triticum aestivum); assay: as above; conditions: Postemergence
Method in brief: as §1

[26] = tested on: ragweed (common ragweed, Ambrosia artemisiifolia); assay: as above; conditions: Postemergence
Method in brief: as §1

[27] = 31 g ai/ha, greenhouse 10 days, 0 no effect, 100 complete control
[28] = 125 g ai/ha, 10 days, 0 is no effect, 100 is complete control

Structure (SMILES): CC1(C(=O)NC2CC=C(C(=O)OCC(F)(F)F)C2)CN(c2cc(Cl)cc(Cl)c2)C(=O)O1 (stereo not drawn) [Compound 71]
- Barnyardgrass plant response rating (0-100) ([1]; 31 g ai/ha): 50
- Barnyardgrass plant response rating (0 to 100 scale) ([1]; 125 g ai/ha): 90
- Amaranth, Palmer plant response rating (0-100) ([2]; 31 g ai/ha): 90
- Amaranth, Palmer plant response rating (0 to 100 scale) ([2]; 125 g ai/ha): 100
- Soybean plant response rating (0-100) ([3]; 31 g ai/ha): 10
- Soybean plant response rating (0 to 100 scale) ([3]; 125 g ai/ha): 70
- Blackgrass plant response rating (0-100) ([4]; 31 g ai/ha): 0
- Blackgrass plant response rating (0 to 100 scale) ([4]; 125 g ai/ha): 50
- Corn plant response rating (0-100) ([5]; 31 g ai/ha): 30
- Corn plant response rating (0 to 100 scale) ([5]; 125 g ai/ha): 50
- Ryegrass, Italian plant response rating (0-100) ([6]; 31 g ai/ha): 40
- Ryegrass, Italian plant response rating (0 to 100 scale) ([6]; 125 g ai/ha): 70
- Kochia plant response rating (0-100) ([7]; 31 g ai/ha): 70
- Kochia plant response rating (0 to 100 scale) ([7]; 125 g ai/ha): 90
- Oat, Wild plant response rating (0-100) ([8]; 31 g ai/ha): 20
- Oat, Wild plant response rating (0 to 100 scale) ([8]; 125 g ai/ha): 30
- Wheat plant response rating (0-100) ([9]; 31 g ai/ha): 60
- Wheat plant response rating (0 to 100 scale) ([9]; 125 g ai/ha): 90
- Ragweed plant response rating (0-100) ([10]; 31 g ai/ha): 0
- Ragweed plant response rating (0 to 100 scale) ([10]; 125 g ai/ha): 30
- Plant response rating, Barnyardgrass (0 to 100 scale, 0 is no effect and 100 is complete control) [11]: 80
- Plant response rating, Rice (0 to 100 scale, 0 is no effect and 100 is complete control) [12]: 85
- Plant response rating, Sedge, Umbrella (0 to 100 scale, 0 is no effect and 100 is complete control) [13]: 100
- Plant response rating, Ducksalad (0 to 100 scale, 0 is no effect and 100 is complete control) [14]: 70
- Barnyardgrass plant response rating (0 to 100 scale) [15, 27]: 90
- Barnyardgrass plant response rating (0 to 100 scale) [15, 28]: 90
- Galium plant response rating (0 to 100 scale) [16, 27]: 80
- Galium plant response rating (0 to 100 scale) [16, 28]: 80
- Amaranth, Palmer / Pigweed, Palmer plant response rating (0 to 100 scale) [17, 27]: 90
- Amaranth, Palmer / Pigweed, Palmer plant response rating (0 to 100 scale) [17, 28]: 90
- Soybean plant response rating (0 to 100 scale) [18, 27]: 70
- Soybean plant response rating (0 to 100 scale) [18, 28]: 90
- Blackgrass plant response rating (0 to 100 scale) [19, 27]: 80
- Blackgrass plant response rating (0 to 100 scale) [19, 28]: 90
- Corn plant response rating (0 to 100 scale) [20, 27]: 100
- Corn plant response rating (0 to 100 scale) [20, 28]: 100
- Ryegrass, Italian plant response rating (0 to 100 scale) [21, 27]: 60
- Ryegrass, Italian plant response rating (0 to 100 scale) [21, 28]: 70
- Horseweed plant response rating (0 to 100 scale) [22, 27]: 10
- Horseweed plant response rating (0 to 100 scale) [22, 28]: 70
- Kochia plant response rating (0 to 100 scale) [23, 27]: 80
- Kochia plant response rating (0 to 100 scale) [23, 28]: 90
- Oat, Wild plant response rating (0 to 100 scale) [24, 27]: 40
- Oat, Wild plant response rating (0 to 100 scale) [24, 28]: 90
- Wheat plant response rating (0 to 100 scale) [25, 27]: 80
- Wheat plant response rating (0 to 100 scale) [25, 28]: 90
- Ragweed plant response rating (0 to 100 scale) [26, 27]: 60
- Ragweed plant response rating (0 to 100 scale) [26, 28]: 60

From US20260285850A1, “SUBSTITUTED OXAZOLIDINONES AND IMIDAZOLINONES AS HERBICIDES” (FMC CORPORATION, priority 2023, published 2026)
